Source: patent publication US5328902A, “7-(substituted)-9-[(substituted glycyl)amido]-6-demethyl-6-deoxytetracyclines” (American Cyanamid Co., priority 1992, dated 1994)

Legend:
S. mariescens FPOR 8733 = test: MIC, agar dilution; type: cell-based
S. aureus SMITH (MP) = test: MIC, agar dilution; type: cell-based; conditions: S. aureus SMITH (MP)
[1] = test system: Staphylococcus aureus strain Smith (tetracycline sensitive); test: In vivo antibacterial evaluation, acute lethal infection in mice; conditions: animals infected with S. aureus Smith, 10080 min
[2] = test system: Ps. acruginosa ATCC 27853; test: MIC, agar dilution; type: cell-based; conditions: Ps. acruginosa ATCC 27853
[3] = test system: S. aureus UBMS 90-2 Tet M; test: microbe, parasite or virus in culture; type: cell-based; conditions: S. aureus UBMS 90-2 Tet M
S. aureus ROSE (MP) = test: MIC, agar dilution; type: cell-based; conditions: S. aureus ROSE (MP)
[4] = test system: S. hemolyticus AVHAH 88-3; test: MIC, agar dilution; type: cell-based; conditions: S. hemolyticus AVHAH 88-3
E. coli UBMS 88-1 Tet B = test: microbe, parasite or virus in culture; type: cell-based; conditions: E. coli UBMS 88-1 Tet B; 18 hours at 35° C.
S. aureus IVES 2943 = test: MIC, agar dilution; type: cell-based; conditions: S. aureus IVES 2943
E. coli UBMS 90-4 Tet M = test: microbe, parasite or virus in culture; type: cell-based; conditions: E. coli UBMS 90-4 Tet M
the ribosome = test: Reversibility of binding: bacterial growth resumes after washing; type: cell-based; conditions: bacterial growth resumes when the compound is removed from the cultures by washing
Description: Therefore, the ability of these compounds to inhibit bacterial growth appears to be a direct consequence of its ability to inhibit protein synthesis at the ribosome level.

[5] = test system: E. coli UBMS 89-2 Tet sens.; test: MIC, agar dilution; type: cell-based; conditions: E. coli UBMS 89-2 Tet sens.
E. coli UBMS 89-1 Tet M = test: microbe, parasite or virus in culture; type: cell-based; conditions: E. coli UBMS 89-1 Tet M
[6] = test system: E. coli MC 4100 TNIOC Tet B; test: microbe, parasite or virus in culture; type: cell-based; conditions: E. coli MC 4100 TNIOC Tet B
S. aureus IVES 1 983 = test: MIC, agar dilution; type: cell-based; conditions: S. aureus IVES 1 983
S. aureus UBMS 90-3 = test: MIC, agar dilution; type: cell-based; conditions: S. aureus UBMS 90-3
[7] = test system: S. aureus UBMS 88-7 Tet K; test: microbe, parasite or virus in culture; type: cell-based; conditions: S. aureus UBMS 88-7 Tet K
E. coli PRP1 Tet A = test: microbe, parasite or virus in culture; type: cell-based; conditions: E. coli PRP1 Tet A
E. coli J3272 Tet D = test: microbe, parasite or virus in culture; type: cell-based; conditions: E. coli J3272 Tet D
[8] = test system: tetracycline sensitive and resistant Gram-positive and Gram-negative bacteria; test: In vitro antibacterial activity, summary in words of Table I; type: cell-based
E. coli J3272 Tet sens. = test: MIC, agar dilution; type: cell-based
[9] = test system: S. aureus UBMS 90-1 Tet M; test: microbe, parasite or virus in culture; type: cell-based; conditions: S. aureus UBMS 90-1 Tet M
E. coli UBMS 90-5 = test: MIC, agar dilution; type: cell-based
[10] = test system: Wild Type S30 (wild type ribosomes, E. coli strain MRE600, tetracycline sensitive); test: E. coli in vitro protein translation system, wild type S30
S. aureus UBMS 88-4 = test: MIC, agar dilution; type: cell-based; conditions: S. aureus UBMS 88-4

`CC1CCN(CC(=O)Nc2cc(N(C)C)c3c(c2O)C(=O)C2=C(O)C4(O)C(=O)C(C(N)=O)=C(O)C(N(C)C)C4CC2C3)CC1.Cl.Cl` (stereo not drawn) [G, [7S-(7alpha,10aalpha)]-N-[9-(Aminocarbonyl)4,7-bis(dimethylamino)-5,5a,6,6a,7,10,10a,12-octahydro-1,8,10a,ll-tetrahydroxy-10,12-dioxo-2-naphthacenyl]-4-methyl-l-piperidineacetamide dihydrochloride] showed an MIC (S. mariescens FPOR 8733) of 16 µg/mL, an MIC (S. aureus SMITH (MP)) of 0.5 µg/mL and an ED50 ([1]; administered intravenously) of 1 to 2 mg/kg. The ED50 ([1]; given orally) was 4 to 8 mg/kg, the MIC [2] was 32 µg/mL and the MIC [3] was 0.5 µg/mL. For the same compound, the MIC (S. aureus ROSE (MP)) was 1 µg/mL, the MIC [4] was 1 µg/mL and the MIC (E. coli UBMS 88-1 Tet B) was 2 µg/mL. For the same compound, the MIC (S. aureus IVES 2943) was 0.5 µg/mL, the MIC (E. coli UBMS 90-4 Tet M) was 1 µg/mL and the “reversibility of binding to the ribosome” value (the ribosome) was “bind reversibly”. For the same compound, the MIC [5] was 2 µg/mL, the MIC (E. coli UBMS 89-1 Tet M) was 0.5 µg/mL and the MIC [6] was 2 µg/mL. It also gave an MIC (S. aureus IVES 1 983) of 0.5 µg/mL, an MIC (S. aureus UBMS 90-3) of 0.5 µg/mL and an MIC [7] of 0.5 µg/mL. For the same compound, the MIC (E. coli PRP1 Tet A) was 2 µg/mL, the MIC (E. coli J3272 Tet D) was 0.25 µg/mL and the “activity against E. coli tetA, E. coli tetC and E. coli tetD” value [8] was “good activity”. For the same compound, the “in vitro activity against tetracycline resistant strains containing tetM and tetB resistance determinants” value ([8]; S. aureus UBMS 88-5, 90-1, 90-2, E. coli UBMS 89-1, 90-4, 88-1, TN10C tetB) was “excellent”, the “activity against recently isolated bacteria from clinical sources compared with minocycline” value ([8]; clinical isolates) was “superior to that of minocycline” and the “activity against susceptible strains compared with minocycline” value ([8]; susceptible strains) was “equallyas effective as minocycline”. For the same compound, the MIC (E. coli J3272 Tet sens.) was 1 µg/mL, the MIC [9] was 0.5 µg/mL and the MIC (E. coli UBMS 90-5) was 2 µg/mL. For the same compound, the “% Inhibition Wild Type S30” value ([10]; Conc. 0.06 mg/ml) was 90%, the “% Inhibition Wild Type S30” value ([10]; Conc. 1.0 mg/ml) was 99% and the “inhibition of protein synthesis occuring on wild type ribosomes” value ([10]; coupled transcription and translation system) was “effectively inhibit protein synthesis”. It also gave an MIC (S. aureus UBMS 88-4) of 0.5 µg/mL.
